Reference: patent US20250145665A1, “MACROCYCLIC PEPTIDES USEFUL AS MODULATORS OF TNF ALPHA” (Bristol-Myers Squibb Company, priority 2023, published 2025)
Starred links: 1 amine or outer side, 2 acyl side, 3 side chain; linkers in the order of their positions; H or OH if unused. Positions of bridges follow the written chain, without caps; N, C: chain ends. Non-standard residues stand in square brackets, D forms with d. Residues, ends and D or L forms follow the SMILES beside them. ξ: configuration not given here. *: point of attachment. Bip(4'-NHCO-C6H4-3-CH2COOH) = N[C@@H](Cc1ccc(-c2ccc(NC(=O)c3cccc(CC(=O)O)c3)cc2)cc1)C(=O)O; Bip(4'-NHCO-C6H4-4-CH2COOH) = N[C@@H](Cc1ccc(-c2ccc(NC(=O)c3ccc(CC(=O)O)cc3)cc2)cc1)C(=O)O; X5 = Cn1nc(C(=O)Nc2ccc(-c3ccc(C[C@H](N[*:1])C(=O)[*:2])cc3)cc2)c2ccccc21; dArg(ω-(2S)-2,3-diOHpropyl) = N=C(NCCC[C@@H](N)C(=O)O)NC[C@H](O)CO; Bip(4'-NH) = O=C([C@H](Cc1ccc(-c2ccc(N[*:3])cc2)cc1)N[*:1])[*:2]; Indazole3carbonyl(1-CH2COOH) = O=C(O)Cn1nc(C(=O)*)c2ccccc21; Bip(4'-COOH) = N[C@@H](Cc1ccc(-c2ccc(C(=O)O)cc2)cc1)C(=O)O; Bip(4'-NHAc) = CC(=O)Nc1ccc(-c2ccc(C[C@H](N)C(=O)O)cc2)cc1; X18 = N=C(NCCC[C@@H](N[*:1])C(=O)[*:2])NCCc1ccc(O)cc1; Ala(morpholin-4-yl) = N[C@@H](CN1CCOCC1)C(=O)O; Phe(3-CONH2) = NC(=O)c1cccc(C[C@H](N)C(=O)O)c1; Benzoyl(4-Ph) = O=C(c1ccc(-c2ccccc2)cc1)*; Bip = N[C@@H](Cc1ccc(-c2ccccc2)cc1)C(=O)O; Pro(cis-4-F) = O=C(O)[C@@H]1C[C@H](F)CN1; X13 = O=C([C@H](Cc1ccc[nH]1)N[*:1])[*:2]; Ala(2-furyl) = N[C@@H](Cc1ccco1)C(=O)O; Val(3-OH) = CC(C)(O)[C@H](N)C(=O)O; X61 = O=C(c1ccc2c(c1)Cc1ccccc1-2)*; Hyp = O=C(O)[C@@H]1C[C@@H](O)CN1; 2Pal = N[C@@H](Cc1ccccn1)C(=O)O; 3Pal = N[C@@H](Cc1cccnc1)C(=O)O; Cha = N[C@@H](CC1CCCCC1)C(=O)O; Chg = N[C@H](C(=O)O)C1CCCCC1; Tle = CC(C)(C)[C@H](N)C(=O)O; Aze = O=C(O)[C@@H]1CCN1; ξP = O=C(O)C1CCCN1; Sar = CNCC(=O)O

molecular target: TNFα (Homo sapiens, UniProt P01375); assay: TNF-Induced HEK-Blue Assay; assay type: cell-based; settings: not given
Sequence (P01375 77-233 limits assumed): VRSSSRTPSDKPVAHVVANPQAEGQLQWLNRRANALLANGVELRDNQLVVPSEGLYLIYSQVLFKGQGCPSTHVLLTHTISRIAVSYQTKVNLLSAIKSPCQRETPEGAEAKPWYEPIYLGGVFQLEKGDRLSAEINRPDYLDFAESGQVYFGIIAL

Structure (SMILES) | IC50 [nM]
CC(C)C[C@@H]1NC(=O)[C@H](CCCNC(=N)N)NC(=O)[C@H](C(C)C)NC(=O)C2CCCN2C(=O)[C@H](C(C)C)NC(=O)[C@@H](CCCNC(=N)NCCc2ccc(O)cc2)NC(=O)[C@H](CC(=O)O)NC(=O)[C@@H]2CCCN2C(=O)CN(C)C(=O)[C@H](Cc2ccc(-c3ccc(NC(=O)c4nn(CC(=O)O)c5ccccc45)cc3)cc2)NC(=O)[C@H](Cc2ccc(-c3ccc(C(=O)O)cc3)cc2)NC(=O)[C@H](CN2CCOCC2)NC(=O)CSC[C@@H](C(=O)NCC(N)=O)NC1=O (stereo partly drawn) [Example 404] ({CH2CO}-[Ala(morpholin-4-yl)][Bip(4'-COOH)][Bip(4'-NH)](Indazole3carbonyl(1-CH2COOH))[Sar]PD[X18]V[ξP]VRLCG-NH2; thioether N-13) | 50 to 200

same assay, conditions: HEK-Blue-CD40L cells, NF-kB-driven secreted alkaline phosphatase reporter; TNFα 0.5 ng/ml; 18 h; read-out: TNF induced HEK-Blue assay IC50 value

Structure (SMILES) | IC50 [nM]
CC[C@H](C)[C@@H]1NC(=O)[C@@H](CCCNC(=N)N)NC(=O)[C@H](CC(=O)O)NC(=O)[C@H](Cc2cnc[nH]2)NC(=O)CN(C)C(=O)[C@H](Cc2ccc(-c3ccc(NC(=O)c4ccc(-c5ccccc5)cc4)cc3)cc2)NC(=O)[C@H](Cc2ccc(-c3ccccc3)cc2)NC(=O)[C@H](CC2CCCCC2)NC(=O)CSC[C@@H](C(=O)NCC(N)=O)NC(=O)[C@H](CC(C)C)NC(=O)[C@H](Cc2cnc[nH]2)NC(=O)[C@H](C(C)C)NC(=O)[C@@H]2CCCN2C1=O [Example 307] ({CH2CO}-[Cha][Bip][Bip(4'-NH)](Benzoyl(4-Ph))[Sar]HD[dR]IPVHLCG-NH2; thioether N-13) | 50 to 200
CC(=O)Nc1ccc(-c2ccc(C[C@@H]3NC(=O)[C@H](Cc4ccc(-c5ccc(C(=O)O)cc5)cc4)NC(=O)[C@H](CN4CCOCC4)NC(=O)CSC[C@@H](C(=O)NCC(N)=O)NC(=O)[C@H](CC(C)C)NC(=O)[C@H](Cc4ccccc4)NC(=O)[C@H](C(C)C)NC(=O)[C@@H]4CCCN4C(=O)[C@H](C(C)C)NC(=O)[C@@H](CCCNC(=N)N)NC(=O)[C@H](CC(=O)O)NC(=O)[C@H](Cc4ccccc4)NC(=O)CN(C)C3=O)cc2)cc1 [Example 225] ({CH2CO}-[Ala(morpholin-4-yl)][Bip(4'-COOH)][Bip(4'-NHAc)][Sar]FD[dR]VPVFLCG-NH2; thioether N-13) | 50 to 200
CC(C)C[C@@H]1NC(=O)[C@H](CCCNC(=N)N)NC(=O)[C@H](C(C)C)NC(=O)[C@@H]2C[C@H](F)CN2C(=O)[C@H](C(C)C)NC(=O)[C@H](CCCNC(=N)N)NC(=O)[C@H](CC(=O)O)NC(=O)[C@@H]2CCCN2C(=O)CN(C)C(=O)[C@H](Cc2ccc(-c3ccccc3)cc2)NC(=O)[C@H](Cc2ccc(-c3ccccc3)cc2)NC(=O)[C@H](Cc2ccccc2)NC(=O)CSC[C@@H](C(=O)NCC(N)=O)NC1=O [Example 43] ({CH2CO}-F[Bip][Bip][Sar]PDRV[Pro(cis-4-F)]VRLCG-NH2; thioether N-13) | 200 to 2000
CC[C@H](C)[C@@H]1NC(=O)[C@@H]2CCN2C(=O)[C@H]([C@@H](C)CC)NC(=O)[C@@H](CCCNC(=N)N)NC(=O)[C@H](CC(=O)O)NC(=O)[C@H](Cc2ccc(O)cc2)NC(=O)CN(C)C(=O)[C@H](Cc2ccc(-c3ccc(NC(=O)c4nn(C)c5ccccc45)cc3)cc2)NC(=O)[C@H](Cc2ccc(-c3ccccc3)cc2)NC(=O)[C@H](C(C)(C)C)NC(=O)CSC[C@@H](C(=O)NCC(N)=O)NC(=O)[C@H](CC(C)C)NC(=O)[C@H](Cc2ccc(O)cc2)NC1=O [Example 337] ({CH2CO}-[Tle][Bip][X5][Sar]YD[dR]I[Aze]IYLCG-NH2; thioether N-13) | 50 to 200
CC(=O)Nc1ccc(-c2ccc(C[C@@H]3NC(=O)[C@H](Cc4ccc(-c5ccccc5)cc4)NC(=O)[C@H](CN4CCOCC4)NC(=O)CSC[C@@H](C(=O)NCC(N)=O)NC(=O)[C@H](CC(C)C)NC(=O)[C@H](Cc4ccc(O)cc4)NC(=O)[C@H](C(C)C)NC(=O)[C@@H]4CCCN4C(=O)[C@H](Cc4ccc(O)cc4)NC(=O)[C@@H](CCCNC(=N)N)NC(=O)[C@H](CC(=O)O)NC(=O)[C@H](Cc4ccccn4)NC(=O)CN(C)C3=O)cc2)cc1 [Example 177] ({CH2CO}-[Ala(morpholin-4-yl)][Bip][Bip(4'-NHAc)][Sar][2Pal]D[dR]YPVYLCG-NH2; thioether N-13) | 50 to 200
CC[C@H](C)[C@@H]1NC(=O)[C@@H](CCCNC(=N)N)NC(=O)[C@H](CC(=O)O)NC(=O)[C@H](Cc2cnc[nH]2)NC(=O)CN(C)C(=O)[C@H](Cc2ccc(-c3ccc(NC(C)=O)cc3)cc2)NC(=O)[C@H](Cc2ccc(-c3ccc(C(=O)O)cc3)cc2)NC(=O)[C@H](CC2CCCCC2)NC(=O)CSC[C@@H](C(=O)NCC(N)=O)NC(=O)[C@H](CC(C)C)NC(=O)[C@H](Cc2cnc[nH]2)NC(=O)[C@H](C(C)C)NC(=O)[C@@H]2C[C@@H](O)CN2C1=O [Example 277] ({CH2CO}-[Cha][Bip(4'-COOH)][Bip(4'-NHAc)][Sar]HD[dR]I[Hyp]VHLCG-NH2; thioether N-13) | < 50
CC(C)C[C@@H]1NC(=O)[C@H](CCCNC(=N)N)NC(=O)[C@H](C(C)C)NC(=O)[C@@H]2CCCN2C(=O)[C@H](Cc2cccnc2)NC(=O)[C@H](CCCNC(=N)N)NC(=O)[C@H](CC(=O)O)NC(=O)[C@@H]2CCCN2C(=O)CN(C)C(=O)[C@H](Cc2ccc(-c3ccccc3)cc2)NC(=O)[C@H](Cc2ccc(-c3ccccc3)cc2)NC(=O)[C@H](C(C)(C)O)NC(=O)CSC[C@@H](C(=O)NCC(N)=O)NC1=O [Example 60] ({CH2CO}-[Val(3-OH)][Bip][Bip][Sar]PDR[3Pal]PVRLCG-NH2; thioether N-13) | 200 to 2000
CC(C)C[C@@H]1NC(=O)[C@H](CCC(N)=O)NC(=O)[C@H](C(C)C)NC(=O)[C@@H]2CCCN2C(=O)[C@H](C(C)C)NC(=O)[C@H](CCCNC(=N)N)NC(=O)[C@H](CC(=O)O)NC(=O)[C@@H]2CCCN2C(=O)CN(C)C(=O)[C@H](Cc2ccc(-c3ccccc3)cc2)NC(=O)[C@H](Cc2ccc(-c3ccccc3)cc2)NC(=O)[C@H](Cc2ccccc2)NC(=O)CSC[C@@H](C(=O)NCC(N)=O)NC1=O [Example 18] ({CH2CO}-F[Bip][Bip][Sar]PDRVPVQLCG-NH2; thioether N-13) | 200 to 2000
CC(C)C[C@@H]1NC(=O)[C@H](Cc2ccc(O)cc2)NC(=O)[C@H](C(C)C)NC(=O)CN(C)C(=O)[C@H](C(C)C)NC(=O)[C@@H](CCCNC(=N)N)NC(=O)[C@H](CC(=O)O)NC(=O)[C@H](Cc2ccc(O)cc2)NC(=O)CN(C)C(=O)[C@H](Cc2ccc(-c3ccccc3)cc2)NC(=O)[C@H](Cc2ccc(-c3ccccc3)cc2)NC(=O)[C@H](CN2CCOCC2)NC(=O)CSC[C@@H](C(=O)NCC(N)=O)NC1=O [Example 134] ({CH2CO}-[Ala(morpholin-4-yl)][Bip][Bip][Sar]YD[dR]V[Sar]VYLCG-NH2; thioether N-13) | 50 to 200

The remaining lines, values ahead:

IC50 [nM] | Structure (SMILES)
50 to 200 | CC[C@H](C)[C@@H]1NC(=O)[C@@H]2CCCN2C(=O)[C@H]([C@@H](C)CC)NC(=O)[C@@H](CCCNC(=N)N)NC(=O)[C@H](CC(=O)O)NC(=O)[C@H](Cc2ccccc2)NC(=O)CN(C)C(=O)[C@H](Cc2ccc(-c3ccc(NC(=O)c4ccc5c(c4)Cc4ccccc4-5)cc3)cc2)NC(=O)[C@H](Cc2ccc(-c3ccc(C(=O)O)cc3)cc2)NC(=O)[C@H](C(C)(C)C)NC(=O)CSC[C@@H](C(=O)NCC(N)=O)NC(=O)[C@H](CC(C)C)NC(=O)[C@H](Cc2cnc[nH]2)NC1=O [Example 418] ({CH2CO}-[Tle][Bip(4'-COOH)][Bip(4'-NH)](X61)[Sar]FD[dR]IPIHLCG-NH2; thioether N-13)
50 to 200 | CC(=O)Nc1ccc(-c2ccc(C[C@@H]3NC(=O)[C@H](Cc4ccc(-c5ccccc5)cc4)NC(=O)[C@H](CN4CCOCC4)NC(=O)CSC[C@@H](C(=O)NCC(N)=O)NC(=O)[C@H](CC(C)C)NC(=O)[C@H](Cc4c[nH]cn4)NC(=O)[C@H](C4CCCCC4)NC(=O)[C@@H]4CCCN4C(=O)[C@H](C(C)C)NC(=O)[C@@H](CCCNC(=N)N)NC(=O)[C@H](CC(=O)O)NC(=O)[C@H](Cc4ccco4)NC(=O)CN(C)C3=O)cc2)cc1 [Example 524] ({CH2CO}-[Ala(morpholin-4-yl)][Bip][Bip(4'-NHAc)][Sar][Ala(2-furyl)]D[dR]VP[Chg]HLCG-NH2; thioether N-13)
< 50 | CC(C)C[C@@H]1NC(=O)[C@H](Cc2ccc[nH]2)NC(=O)[C@H](C(C)C)NC(=O)[C@@H]2CCCN2C(=O)[C@H](C(C)C)NC(=O)[C@@H](CCCNC(=N)N)NC(=O)[C@H](CC(=O)O)NC(=O)[C@H](Cc2cnc[nH]2)NC(=O)CN(C)C(=O)[C@H](Cc2ccc(-c3ccc(NC(=O)c4cccc(CC(=O)O)c4)cc3)cc2)NC(=O)[C@H](Cc2ccc(-c3ccc(C(=O)O)cc3)cc2)NC(=O)[C@H](C(C)(C)C)NC(=O)CSC[C@@H](C(=O)NCC(N)=O)NC1=O [Example 597] ({CH2CO}-[Tle][Bip(4'-COOH)][Bip(4'-NHCO-C6H4-3-CH2COOH)][Sar]HD[dR]VPV[X13]LCG-NH2; thioether N-13)
< 50 | CC[C@H](C)[C@@H]1NC(=O)[C@@H](CCCNC(=N)N)NC(=O)[C@H](CC(=O)O)NC(=O)[C@H](Cc2cnc[nH]2)NC(=O)CN(C)C(=O)[C@H](Cc2ccc(-c3ccc(NC(=O)c4ccc(CC(=O)O)cc4)cc3)cc2)NC(=O)[C@H](Cc2ccc(-c3ccccc3)cc2)NC(=O)[C@H](CN2CCOCC2)NC(=O)CSC[C@@H](C(=O)NCC(N)=O)NC(=O)[C@H](CC(C)C)NC(=O)[C@H](Cc2cnc[nH]2)NC(=O)[C@H](C(C)C)NC(=O)[C@@H]2CCCN2C1=O [Example 484] ({CH2CO}-[Ala(morpholin-4-yl)][Bip][Bip(4'-NHCO-C6H4-4-CH2COOH)][Sar]HD[dR]IPVHLCG-NH2; thioether N-13)
50 to 200 | CC(C)C[C@@H]1NC(=O)[C@H](Cc2cccc(C(N)=O)c2)NC(=O)[C@H](C(C)C)NC(=O)[C@@H]2CCCN2C(=O)[C@H](C(C)C)NC(=O)[C@@H](CCCNC(=N)NC[C@H](O)CO)NC(=O)[C@H](CC(=O)O)NC(=O)[C@H](Cc2ccc(O)cc2)NC(=O)CN(C)C(=O)[C@H](Cc2ccc(-c3ccc(NC(=O)c4cccc(CC(=O)O)c4)cc3)cc2)NC(=O)[C@H](Cc2ccc(-c3ccccc3)cc2)NC(=O)[C@H](CN2CCOCC2)NC(=O)CSC[C@@H](C(=O)NCC(N)=O)NC1=O [Example 549] ({CH2CO}-[Ala(morpholin-4-yl)][Bip][Bip(4'-NHCO-C6H4-3-CH2COOH)][Sar]YD[dArg(ω-(2S)-2,3-diOHpropyl)]VPV[Phe(3-CONH2)]LCG-NH2; thioether N-13)
